Data taken from BindingDB's records for PubMed 8863814 (Cyenamid Agricultural Research Center, 1996).
Where “and” joins values, the source holds several entries; their conditions need not be identical. Identical values can stand only once.

Legend:
[1] = target: Somatostatin receptor type 3 (Rattus norvegicus, UniProt P30936)
[2] = target: Somatostatin receptor type 2 (Rattus norvegicus, UniProt P30680)
[3] = target: Somatostatin receptor type 1 (Rattus norvegicus, UniProt P28646)
[4] = target: T1, Somatostatin receptor type 5 (Rattus norvegicus, UniProt P30938)
T1 sequence (P30938 whole entry): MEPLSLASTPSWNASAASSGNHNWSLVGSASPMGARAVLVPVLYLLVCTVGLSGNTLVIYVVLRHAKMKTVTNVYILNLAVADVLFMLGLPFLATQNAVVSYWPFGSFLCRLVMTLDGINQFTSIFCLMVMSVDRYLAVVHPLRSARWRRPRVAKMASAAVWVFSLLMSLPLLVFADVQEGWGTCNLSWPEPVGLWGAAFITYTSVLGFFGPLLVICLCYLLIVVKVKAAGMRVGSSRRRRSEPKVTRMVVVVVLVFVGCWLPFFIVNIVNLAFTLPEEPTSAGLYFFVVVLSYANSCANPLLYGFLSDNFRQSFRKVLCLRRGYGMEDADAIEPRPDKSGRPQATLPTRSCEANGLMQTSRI

Sequence of Somatostatin receptor type 1 (P28646 whole entry): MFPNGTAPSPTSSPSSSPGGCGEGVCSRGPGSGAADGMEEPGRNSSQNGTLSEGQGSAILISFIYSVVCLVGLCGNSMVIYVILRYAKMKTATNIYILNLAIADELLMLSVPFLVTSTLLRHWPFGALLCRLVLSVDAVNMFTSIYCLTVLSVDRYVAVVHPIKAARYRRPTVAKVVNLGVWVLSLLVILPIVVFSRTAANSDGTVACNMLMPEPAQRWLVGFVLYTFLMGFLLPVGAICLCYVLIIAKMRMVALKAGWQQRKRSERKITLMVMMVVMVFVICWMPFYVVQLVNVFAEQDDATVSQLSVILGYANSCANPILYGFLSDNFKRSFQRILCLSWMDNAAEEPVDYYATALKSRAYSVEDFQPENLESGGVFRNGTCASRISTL
Sequence of Somatostatin receptor type 3 (P30936 whole entry): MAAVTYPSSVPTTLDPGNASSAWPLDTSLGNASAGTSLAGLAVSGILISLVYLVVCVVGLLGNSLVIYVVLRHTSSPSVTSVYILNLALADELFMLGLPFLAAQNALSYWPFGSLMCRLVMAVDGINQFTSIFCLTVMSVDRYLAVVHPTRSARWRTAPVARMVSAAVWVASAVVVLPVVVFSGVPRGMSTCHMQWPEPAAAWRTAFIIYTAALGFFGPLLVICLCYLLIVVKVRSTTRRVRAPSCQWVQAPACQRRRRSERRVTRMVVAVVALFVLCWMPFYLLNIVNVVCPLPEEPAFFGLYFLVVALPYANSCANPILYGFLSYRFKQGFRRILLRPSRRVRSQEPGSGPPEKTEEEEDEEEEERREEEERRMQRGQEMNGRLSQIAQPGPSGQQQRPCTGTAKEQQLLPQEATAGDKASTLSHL
Sequence of Somatostatin receptor type 2 (P30680 whole entry): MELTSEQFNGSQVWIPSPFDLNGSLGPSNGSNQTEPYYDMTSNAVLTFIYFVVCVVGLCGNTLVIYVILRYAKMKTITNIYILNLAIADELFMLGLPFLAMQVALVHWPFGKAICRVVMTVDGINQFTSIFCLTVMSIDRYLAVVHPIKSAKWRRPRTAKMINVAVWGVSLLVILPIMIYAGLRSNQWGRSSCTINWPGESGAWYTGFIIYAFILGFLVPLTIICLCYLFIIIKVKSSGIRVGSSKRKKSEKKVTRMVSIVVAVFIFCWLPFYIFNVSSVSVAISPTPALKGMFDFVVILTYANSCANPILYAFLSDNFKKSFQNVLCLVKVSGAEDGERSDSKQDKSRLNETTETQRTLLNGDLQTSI

| Structure (SMILES) | Ki [1] | Ki [2] | Ki [3] | Ki [4] |
| --- | --- | --- | --- | --- |
| CC(=O)N[C@@H](Cc1ccc([N+](=O)[O-])cc1)C(=O)N[C@@H]1CSSC[C@@H](C(=O)N[C@@H](Cc2ccc(O)cc2)C(N)=O)NC(=O)[C@H]([C@@H](C)O)NC(=O)[C@H](CCCCN)NC(=O)[C@@H](Cc2c[nH]c3ccccc23)NC(=O)[C@H](Cc2ccc(O)cc2)NC1=O [AcNH-4-NO2-Phe-c[D-Cys-Tyr-D-Trp-Lys-Thr-Cys]-Tyr-NH2] | 100 nM | 0.3 nM | 1000 nM |  |
| CC(=O)N[C@@H](Cc1ccc([N+](=O)[O-])cc1)C(=O)N[C@H]1CSSC[C@@H](C(=O)N[C@@H](Cc2ccc(O)cc2)C(N)=O)NC(=O)[C@H]([C@@H](C)O)NC(=O)[C@H](CCCCN)NC(=O)[C@@H](Cc2c[nH]c3ccccc23)NC(=O)[C@H](Cc2ccc(O)cc2)NC1=O [AcNH-4-NO2-Phe-c[Cys-Tyr-D-Trp-Lys-Thr-Cys]-Tyr-NH2] | 1000 nM | 0.1 nM |  |  |
| CC(C)[C@H]1NC(=O)[C@H](CCCCN)NC(=O)[C@@H](Cc2c[nH]c3ccccc23)NC(=O)[C@H](Cc2ccc(O)cc2)NC(=O)[C@H](NC(=O)[C@@H](N)Cc2ccc([N+](=O)[O-])cc2)CSSC[C@H](C(=O)N[C@@H](C(N)=O)[C@H](C)O)NC1=O [H2N-4-NO2-Phe-c[D-Cys-Tyr-D-Trp-Lys-Val-Cys]-Tyr-Nh2] |  |  |  | 18.1 nM |
| CC(C)[C@H]1NC(=O)[C@H](CCCCN)NC(=O)[C@@H](Cc2c[nH]c3ccccc23)NC(=O)[C@H](Cc2ccc(O)cc2)NC(=O)[C@@H](NC(=O)[C@@H](N)Cc2ccc([N+](=O)[O-])cc2)CSSC[C@H](C(=O)N[C@@H](C(N)=O)[C@H](C)O)NC1=O [H2N-4-NO2-Phe-c[Cys-Tyr-D-Trp-Lys-Val-Cys]-Tyr-Nh2] |  |  |  | 0.1 nM and 0.42 nM |
| C[C@H](N)C(=O)NCC(=O)N[C@@H]1CSSC[C@@H](C(=O)O)NC(=O)[C@H](CO)NC(=O)[C@@H]([C@@H](C)O)NC(=O)[C@H](Cc2ccccc2)NC(=O)[C@@H]([C@@H](C)O)NC(=O)[C@H](CCCCN)NC(=O)[C@@H](Cc2c[nH]c3ccccc23)NC(=O)[C@H](Cc2ccccc2)NC(=O)[C@@H](Cc2ccccc2)NC(=O)[C@H](CC(N)=O)NC(=O)[C@@H](CCCCN)NC1=O |  |  |  | 5 nM |
| CC(=O)N[C@H](Cc1ccc([N+](=O)[O-])cc1)C(=O)N[C@@H]1CSSC[C@H](C(=O)N[C@@H](C(N)=O)[C@H](C)O)NC(=O)[C@@H](C(C)C)NC(=O)[C@H](CCCCN)NC(=O)[C@@H](Cc2c[nH]c3ccccc23)NC(=O)[C@H](Cc2ccc(O)cc2)NC1=O [AcNH-4-NO2-Phe-c[D-Cys-Tyr-D-Trp-Lys-Thr-Cys]-Tyr-NH2] |  |  |  | 2.5 nM |
| CC(C)[C@@H]1NC(=O)[C@H](CCCCN)NC(=O)[C@@H](Cc2c[nH]c3ccccc23)NC(=O)[C@H](Cc2ccc(O)cc2)NC(=O)[C@H](NC(=O)[C@@H](N)Cc2ccc([N+](=O)[O-])cc2)CSSC[C@@H](C(=O)N[C@@H](Cc2ccc(O)cc2)C(N)=O)NC1=O [H2N-4-NO2-Phe-c[D-Cys-Tyr-D-Trp-Lys-Val-Cys]-Tyr-Nh2] | 1000 nM | 12.9 nM | 1000 nM |  |
| CC(=O)N[C@H](Cc1ccc([N+](=O)[O-])cc1)C(=O)N[C@H]1CSSC[C@H](C(=O)N[C@@H](C(N)=O)[C@H](C)O)NC(=O)[C@@H](C(C)C)NC(=O)[C@H](CCCCN)NC(=O)[C@@H](Cc2c[nH]c3ccccc23)NC(=O)[C@H](Cc2ccc(O)cc2)NC1=O [AcNH-4-NO2-Phe-c[Cys-Tyr-D-Trp-Lys-Thr-Cys]-Tyr-NH2] |  |  |  | 2.2 nM |
| CC(C)[C@@H]1NC(=O)[C@H](CCCCN)NC(=O)[C@@H](Cc2c[nH]c3ccccc23)NC(=O)[C@H](Cc2ccc(O)cc2)NC(=O)[C@@H](NC(=O)[C@@H](N)Cc2ccc([N+](=O)[O-])cc2)CSSC[C@@H](C(=O)N[C@@H](Cc2ccc(O)cc2)C(N)=O)NC1=O [H2N-4-NO2-Phe-c[Cys-Tyr-D-Trp-Lys-Val-Cys]-Tyr-Nh2] | 300 nM | 0.2 nM | 1000 nM |  |
